Source: patent publication US20190127775A1 (priority 2016, published 2019)

Columns and labels:
[1] = un-metabolized parent; only active after metabolic conversion into sulfanilamide; cited from earlier work
[2] = test system: methicillin resistant Staphylococcus aureus (MRSA; ATCC # 43300); experiment: Whole cell anti-MRSA growth inhibition screen (OD590) of Un-Met and Pre-Met library plates; type: cell-based
Experimental: Next, a copy of the library in its un-metabolized form and a copy of the library in its pre-metabolized form were created. The buffer used for library metabolism was (4×=4 times the concentration of each component in the final solution): 4× KPMEN Buffer: 200 mM KH2PO4; 4 mM K2EDTA; 20 mM glucose-6-phosphate, disodium salt (G6P); 4 mM NADPH, tetrasodium salt; pH adjusted to 7.4 with 1 M KOH. To each well in 1 set of the Reconstituted Copy Plates was added 45 μL 1.1× KEPNM Buffer to give 1 set of unmetabolized (“Un-Met”) Library Plates. […] Both sets of plates were incubated at room temperature for 24 hours with gentle rocking to provide 1 set of Un-Met Library Plates and 1 set of Pre-Met Library Plates. […]
Antibacterial activity screening was performed using methicillin resistant Staphylococcus aureus (MRSA; ATCC # 43300). […] The optical density of each well was then read at 590 nm (0D590) using a TECAN SpectraFluor Plus microtiter plate reader (Artisan Technology Group, Champaign, Ill.). These plates were also read prior to addition of bacteria to identify wells with compounds with a high OD590, so that these well could be examined manually for turbidity post bacterial growth, since a high prior OD590 would interfere with post bacterial growth OD590 measurement. […]

SMILES | antibacterial activity in vitro [1] | anti-MRSA activity in the Pre-Met plates ([2]; Pre-Met plates (human liver microsomes), cutoff OD590 0.18, 24 hours 35° C.) | anti-MRSA activity in the Un-Met plates ([2]; Un-Met plates, cutoff OD590 0.15, 24 hours 35° C.)
Nc1ccc(/N=N/c2ccc(S(N)(=O)=O)cc2)c(N)c1 [protosil, prontosil] | inactive in vitro | – | –
COc1ccc2c(c1)[C@]13CCCC[C@@H]1[C@H](C2)N(C)CC3 [dextromethorphan] | – | not in the Pre-Met plates | had anti-MRSA activity
